Reference: US10335392B2, “Cyclic compounds useful as modulators of TNF α” (BRISTOL-MYERS SQUIBB COMPANY, priority 2015, dated 2019)

Target: TNFα (Homo sapiens (Human), UniProt P01375)
Experiment: TNF induced HEK-Blue assay
Format: cell-based
Details: TNFα 0.5 ng/ml; HEK-Blue-CD40L cells, NF-kB-driven secreted alkaline phosphatase reporter; 18 h
Description: TNF or CD40L-Induced HEK-Blue Assay
Test compounds serially diluted in DMSO were plated in an assay plate (LABCYTE, Cat. # LP-0200) at final concentrations ranging from 0.004 μM to 25 μM. TNFα (final concentration 0.5 ng/ml) or CD40L (final concentration 30 ng/ml) in assay buffer [DMEM, 4.5 g/l glucose (Gibco, Cat. 21063-029), 10% FBS (Sigma, F4135), 1% Penicillin-Streptomycin (Gibco, Cat. 15140-122), 1% Anti-Anti (Gibco, Cat. 15240-112) and 2 mM L-glutamine (Gibco, Cat. 25030-081)] was then added to the assay plate. After a 30 minute pre-incubation at 37° C. and 5% CO2, HEK-Blue™-CD40L cells (INVIVOGEN, Cat. Code hkb-cd40) containing a NF-kB-driven secreted alkaline phosphatase reporter gene were seeded into the assay plate at a density of 20,000 cells per well. This plate was then incubated for 18 h at 37° C. and 5% CO2. Secreted alkaline phosphatase expression was measured using QUANTI-Blue™ (INVIVOGEN, Cat. Code rep-qb1) according to manufacturer's specifications and the assay plate was read on a PerkinElmer Envision at 620 nm.
Inhibition data for the test compound over a range of concentrations was plotted as percentage inhibition of the test compound (100%=maximum inhibition). IC50 values were determined after correcting for background [(sample read−mean of low control)/(mean of high control−mean of low control)] where by the low control is DMSO without stimulation and high control is DMSO with stimulation. The IC50 is defined as the concentration of test compound which produces 50% inhibition and was quantified using the 4 parameter logistic equation to fit the data.

Sequence of TNFα (P01375 77-233): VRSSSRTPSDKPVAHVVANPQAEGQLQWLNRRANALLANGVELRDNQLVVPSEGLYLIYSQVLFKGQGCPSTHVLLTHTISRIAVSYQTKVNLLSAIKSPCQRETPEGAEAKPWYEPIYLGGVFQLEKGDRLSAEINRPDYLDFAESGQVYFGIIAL

| SMILES | IC50 [µM] |
| --- | --- |
| O=C(O)CN1CCN(c2ncc(-c3cc4c(cc3F)nc3n4[C@@H](c4ccccc4OC(F)F)[C@@H]4C[C@H]34)cn2)CC1 [Example 33, 2-(4-(5-((1aS,8R,8aR)-8-(2-(difluoromethoxy)phenyl)-4-fluoro-1,1a,8,8a-tetrahydrobenzo[d]cyclopropa[3,4]pyrrolo[1,2-a]imidazol-5-yl)pyrimidin-2-yl)piperazin-1-yl)acetic acid] | < 1 |
| CC(C)(O)c1ncc(-c2cc3c(cc2F)nc2n3[C@@H](c3ccccc3OCc3ccncc3)[C@@H]3C[C@H]23)cn1 [Example 34, 2-(5-((1aS,8R,8aR)-4-fluoro-8-(2-(pyridin-4-ylmethoxy)phenyl)-1,1a,8,8a-tetrahydrobenzo[d]cyclopropa[3,4]pyrrolo[1,2-a]imidazol-5-yl)pyrimidin-2-yl)propan-2-ol] | 1 to 10 |
| CC(C)(O)c1ncc(-c2cc3c(cc2F)nc2n3[C@H](c3ccccc3OCc3ccncc3)[C@@H]3C[C@H]23)cn1 [Example 35, 2-(5-((1aS,8S,8aR)-4-fluoro-8-(2-(pyridin-4-ylmethoxy)phenyl)-1,1a,8,8a-tetrahydrobenzo[d]cyclopropa[3,4]pyrrolo[1,2-a]imidazol-5-yl)pyrimidin-2-yl)propan-2-ol] | 10 to 25 |
